Laboratory results: patent US20040235939A1, “Synthesis of peloruside a and analogs thereof for use as antitumor agents” (priority 2003, published 2004)
Like-named read-outs stand apart in the source and are kept apart here.

Legend:
MDA-MB-231 = assay: SRB cytotoxicity assay, MDA-MB-231; type: cell-based; details: Homo sapiens
Experimental: (§1) Cells were treated on Days 1, 3, 5, and 7 with 5 μL of media, vehicle, or drug. Peloruside A was resuspended in 0.1% DMSO and added to wells to a final concentration of 0.01, 0.1, 1, 10 or 100 nM. Taxol® (Sigma-Aldrich) was resuspended in 0.1% ethanol and added to cells to a final concentration of 0.1, 1, 10, 100, or 1000 nM.
(§2) The amount of surviving cells was measured using the sulforhodamine B (SRB) assay as previously described (Skehan et al., New colorimetric cytotoxicity assay for anticancer-drug screening. J. Natl. Cancer Inst., 1990. 82(13): p. 1107-12). Cells were fixed on Days 5, 7, and 9 (representing 4, 6, and 8 days of exposure to drug or control, respectively) with 50% (w/v) trichloroacetic acid for 1 hour at 4° C., rinsed thoroughly with water, and dried overnight. The dried cells were stained with 4% sulforhodamine B in 1% acetic acid, rinsed thoroughly and dried overnight. The bound dye was resuspended in 10 mM Tris and the absorbance was read at 492 nm. Percent growth inhibition (GI) was calculated as follows: %GI=(1−(absorbance sample/absorbance vehicle))×100. The absorbance value for each drug concentration and control represents the average of 6 replicates. The %GI was plotted against the log[drug] to generate the growth curves. The concentration of drug required to inhibit growth by 50% (GI50) was calculated for each time point.

NCI-H23 = assay: SRB cytotoxicity assay, NCI-H23; type: cell-based; details: Homo sapiens
Experimental: as §1, §2

[1] = system: Tubulin, purified from bovine brains; assay: Tubulin polymerization in vitro; type: biochemical
Experimental: Tubulin, purified from bovine brains and prepared in PEM-buffer (80 mM PIPES, 0.5 mM MgCl2, 1 mM EGTA, pH 6.9) was thawed under vacuum on ice. Tubulin was incubated at 37° C. until almost melted and resuspended to a final concentration of 2 mg/ml and placed on ice. Peloruside A or Taxol® was added into transparent 96-well plates (Coming Incorp. Costar) and placed on ice. GTP (Sigma) was added to a final concentration of 1 mM. The 96 well plate was warmed to 37° C. and 120 μl of tubulin solution was added into each well. The absorbance of the reaction at 340 nm over time (each 40-50 sec.) was measured on the spectrophotometer TECAN SPECTRAFluor Plus. Peloruside A or Taxol® was added to the tubulin at a final concentration of 5 or 10 μM.

1A9 cells = assay: Cell Titer-Glo cell viability, parent 1A9 cells; type: cell-based, human; details: parental 1A9 cells, 48 hours
Experimental: These cell lines have specific amino acid mutations in tubulin that prevent Taxol®-binding. […] Synthetic (+)-Peloruside A was used for the present example.
1A9, ptx10 and ptx22 cells were plated in 96-well plates to approximately 50% confluency. On the next day, Taxol® or Peloruside A was added to each well and incubated for 48 hours. A final concentration of 1, 2, 3, 4, 5, 8, 10, 20, 30, 50, 100, 300, 500, or 1000 nM of Taxol® was used. A final concentration of 10, 20, 30, 40, 50 or 70 nM of Peloruside A was used. Cell viability was measured using the Cell Titer-Glo Luminescent Cell Viability Assay (Promega). FIGS. 80-82 show bar graphs of cell viability at various concentrations of Peloruside A and Taxol®.

[2] = system: various cultured human tumor cell lines; assay: Proliferation of a panel of tumor cell lines; type: cell-based; details: panel: colon, pancreas, melanoma, ovarian, renal, liver, lung, breast, prostate
Experimental: as §1, §2

## CC[C@H](/C=C(/C)C1C[C@@H](OC)CC(O)C(C)(C)C2(O)OC(C[C@@H](OC)C2O)C[C@@H](OC)[C@H](O)C(=O)O1)CO (single isomer, unassigned; (+)) [Peloruside A, (+)-Peloruside A]
MDA-MB-231; MDA-MB-231, 96 h
  GI50: 4.02 nM
MDA-MB-231; MDA-MB-231, 144 h
  GI50: 3.4 nM
MDA-MB-231; MDA-MB-231, 192 h
  GI50: 1.53 nM
NCI-H23; NCI-H23, 144 h
  GI50: 7.11 nM
NCI-H23; NCI-H23, 192 h
  GI50: 4.78 nM
[1]
  polymerization of tubulin dimers into microtubule polymers (microtubule-stabilizing activity): did polymerize tubulin dimers into microtubule polymers
[1]; 5 or 10 μM, 37° C., absorbance at 340 nm
  tubulin stabilization activity: potent tubulin stabilization activity
1A9 cells
  inhibition of cell growth (antimitotic activity): potent antimitotic activity
[2]
  inhibition of proliferation of tumor cell lines: inhibited proliferation
[2]; listed as ent-40
  inhibition of proliferation of tumor cell lines: did inhibit the growth

## CC(=O)O[C@H]1C(=O)[C@@]2(C)[C@H]([C@H](OC(=O)c3ccccc3)[C@]3(O)C[C@H](OC(=O)[C@H](O)[C@@H](NC(=O)c4ccccc4)c4ccccc4)C(C)=C1C3(C)C)[C@]1(OC(C)=O)CO[C@@H]1C[C@@H]2O [Paclitaxel, paclitaxel, reference compound]
MDA-MB-231; MDA-MB-231, 144 h, MB-MDA-231, Breast, 6 Days, read-out: GI50
  GI50: 0.09 nM
MDA-MB-231; MDA-MB-231, 192 h, MB-MDA-231, Breast, 8 Days, read-out: GI50
  GI50: 0.01 nM
NCI-H23; NCI-H23, 96 h, NCl-H23, Lung, 4 Days, read-out: GI50
  GI50: 1 nM
NCI-H23; NCI-H23, 144 h, NCl-H23, Lung, 6 Days, read-out: GI50
  GI50: 1.12 nM
NCI-H23; NCI-H23, 192 h, NCl-H23, Lung, 8 Days, read-out: GI50
  GI50: 0.18 nM
